Laboratory results reported in patent US20170007700A1, “COMPOSITIONS AND METHODS FOR BORON NEUTRON CAPTURE THERAPY” (THE CURATORS OF THE UNIVERSITY OF MISSOURI, priority 2014, published 2017).

Experiment: Metabolic transformation of TAC and MAC in vivo (MALDI-MS of mouse urine)
Parameters: species or system mice
Conditions: for metabolic degradation in vivo: mice given TAC/MAC liposomes
Source text: One of the components of in vivo biodistribution study of TAC/MAC liposomes in mice was identification of any metabolic transformation of either TAC or MAC in the body. Metabolic degradation of TAC was not observed in vivo. […] Three main metabolites of MAC were identified in mouse urine by matrix-assisted laser desorption […] mass spectrometry (MALDI-MS) analysis and are illustrated in FIG. 4.

Substance	main metabolites identified in mouse urine (MALDI-MS)	metabolic degradation in vivo
K[nido-7-CH3(CH2)15-7,8-C2B9H11] [MAC]	Three	expelled without change
Na3[1-(2′-B10H9)-2-NH3B10H8] [TAC]		not observed
